Test system: P12-Ichikawa
Assay: cell viability relative to DMSO control; higher = less cytotoxic
Conditions: 48 h
Method in brief: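 NOMO1, SEM and P12-Ichikawa leukemia cells spent at least four passages adapting to each medium before use. They were seeded at 500 cells/well (NOMO1, SEM) or 1000 cells/well (P12-Ichikawa) in 5 μl in 1536-well plates and pin-dosed with library compounds in DMSO at 11 threefold steps from 47 μM down to 0.79 nM. After 48 h at 37°C, CellTiter-Glo One luminescence was read. Viability is reported as a percentage of the DMSO wells on each plate, with cell-free wells as background.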

[1] = HPLM + 10% dialyzed FBS, 0.000781 µM
[2] = HPLM + 10% dialyzed FBS, 0.00234 µM
[3] = HPLM + 10% dialyzed FBS, 0.00702 µM
[4] = HPLM + 10% dialyzed FBS, 0.0211 µM
[5] = HPLM + 10% dialyzed FBS, 0.0632 µM
[6] = HPLM + 10% dialyzed FBS, 0.19 µM
[7] = HPLM + 10% dialyzed FBS, 0.569 µM
[8] = HPLM + 10% dialyzed FBS, 1.71 µM
[9] = HPLM + 10% dialyzed FBS, 5.12 µM
[10] = HPLM + 10% dialyzed FBS, 15.4 µM
[11] = HPLM + 10% dialyzed FBS, 46.1 µM
[12] = RPMI 5 mM glucose + 10% FBS, 0.000781 µM
[13] = RPMI 5 mM glucose + 10% FBS, 0.00234 µM
[14] = RPMI 5 mM glucose + 10% FBS, 0.00702 µM
[15] = RPMI 5 mM glucose + 10% FBS, 0.0211 µM
[16] = RPMI 5 mM glucose + 10% FBS, 0.0632 µM
[17] = RPMI 5 mM glucose + 10% FBS, 0.19 µM
[18] = RPMI 5 mM glucose + 10% FBS, 0.569 µM
[19] = RPMI 5 mM glucose + 10% FBS, 1.71 µM
[20] = RPMI 5 mM glucose + 10% FBS, 5.12 µM
[21] = RPMI 5 mM glucose + 10% FBS, 15.4 µM
[22] = RPMI 5 mM glucose + 10% FBS, 46.1 µM
[23] = RPMI 5 mM glucose + 10% dialyzed FBS, 0.000781 µM
[24] = RPMI 5 mM glucose + 10% dialyzed FBS, 0.00234 µM
[25] = RPMI 5 mM glucose + 10% dialyzed FBS, 0.00702 µM
[26] = RPMI 5 mM glucose + 10% dialyzed FBS, 0.0211 µM
[27] = RPMI 5 mM glucose + 10% dialyzed FBS, 0.0632 µM
[28] = RPMI 5 mM glucose + 10% dialyzed FBS, 0.19 µM
[29] = RPMI 5 mM glucose + 10% dialyzed FBS, 0.569 µM
[30] = RPMI 5 mM glucose + 10% dialyzed FBS, 1.71 µM
[31] = RPMI 5 mM glucose + 10% dialyzed FBS, 5.12 µM
[32] = RPMI 5 mM glucose + 10% dialyzed FBS, 15.4 µM
[33] = RPMI 5 mM glucose + 10% dialyzed FBS, 46.1 µM

SMILES | cell viability [1] | cell viability [2] | cell viability [3] | cell viability [4] | cell viability [5] | cell viability [6] | cell viability [7] | cell viability [8] | cell viability [9] | cell viability [10] | cell viability [11] | cell viability [12] | cell viability [13] | cell viability [14] | cell viability [15] | cell viability [16] | cell viability [17] | cell viability [18] | cell viability [19] | cell viability [20] | cell viability [21] | cell viability [22] | cell viability [23] | cell viability [24] | cell viability [25] | cell viability [26] | cell viability [27] | cell viability [28] | cell viability [29] | cell viability [30] | cell viability [31] | cell viability [32] | cell viability [33]
COc1cc(O)c2c(c1)C(=O)c1cc(C)cc(O)c1C2=O | 124% | 120% | 122% | 118% | 122% | 119% | 112% | 114% | 110% | 98.9% | 41.7% | 121% | 118% | 121% | 119% | 121% | 116% | 113% | 113% | 120% | 97.6% | 45.2% | – | – | – | – | – | – | – | – | – | – | –
CC(C)(O)/C=C\C(=O)[C@](C)(O)[C@H]1[C@H](O)C[C@]2(C)[C@@H]3CC=C4[C@@H](C=C(O)C(=O)C4(C)C)[C@]3(C)C(=O)C[C@@]12C | 94.8% | 106% | 103% | 99.6% | 99.7% | 50.9% | 15.1% | 18.4% | 21.6% | 12.9% | 4.2% | 113% | 105% | 111% | 107% | 97.9% | 47.3% | 12.4% | 15.1% | 17.1% | 6.22% | 2.85% | 93.9% | 98.5% | 93.9% | 104% | 102% | 43.8% | 14.6% | 17.9% | 20.9% | 6.49% | 3.06%
CO/N=C(\C(=O)N[C@@H]1C(=O)N2C(C(=O)OCOC(=O)C(C)(C)C)=C(/C=C\c3scnc3C)CS[C@H]12)c1csc(N)n1 | 91.7% | 102% | 105% | 104% | 108% | 110% | 106% | 106% | 110% | 89.8% | 72.4% | 85.6% | 91.6% | 101% | 99.6% | 101% | 103% | 96.4% | 103% | 103% | 75.8% | 60.1% | 92% | 89.6% | 102% | 91.8% | 104% | 106% | 99.2% | 98.7% | 102% | 80.9% | 57.2%
C[C@]12CC[C@H]3[C@@H](CCC/4=C/C(=O)CC[C@]34C)[C@@H]1CC[C@@H]2OC(=O)CCC5CCCC5 | 93.1% | 100% | 104% | 113% | 98.8% | 101% | 106% | 110% | 104% | 111% | 114% | 83.1% | 84.3% | 101% | 107% | 115% | 104% | 107% | 108% | 110% | 101% | 99.9% | 90.8% | 93.5% | 99.8% | 102% | 100% | 104% | 104% | 98.9% | 104% | 110% | 96.7%
C[C@H]1COC/2=C1/C(=O)C(=O)C3=C4CCCC(C)(C)C4=CC=C23 | 112% | 118% | 121% | 129% | 127% | 134% | 137% | 124% | 129% | 118% | 94% | – | – | – | – | – | – | – | – | – | – | – | – | – | – | – | – | – | – | – | – | – | –
C[C@@]1(C(=O)Nc2ccc(F)nc2)CCCN1c1nc(Nc2cc(C3CC3)[nH]n2)c2cccn2n1 | 103% | 109% | 111% | 112% | 114% | 112% | 117% | 114% | 11.6% | 15.1% | 18.6% | 119% | 116% | 130% | 113% | 124% | 120% | 124% | 116% | 21.9% | 23.2% | 27.5% | 107% | 122% | 135% | 121% | 129% | 126% | 131% | 121% | 32.2% | 41% | 43%
COc1cc(/C=C/C(=O)O)ccc1O | 89.1% | 93% | 91.4% | 104% | 95.7% | 102% | 107% | 99% | 103% | 106% | 107% | 90.9% | 88.5% | 91.9% | 84.4% | 88.5% | 92% | 99.4% | 88.4% | 79.1% | 97.1% | 101% | 88.1% | 89.8% | 88.7% | 94.1% | 91.5% | 91.1% | 96.3% | 93.5% | 91.1% | 94.1% | 99%
O.O.CCN1CCN(C(=O)N[C@H](C(=O)N[C@H]2[C@@H]3SC\C(=C(/N3C2=O)C(O)=O)CSC4=NN=N[N]4C)C5=CC=C(O)C=C5)C(=O)C1=O | 92.1% | 102% | 103% | 11.8% | 105% | 103% | 112% | 95.9% | 106% | 108% | 108% | 86.8% | 99.4% | 90.8% | 12.4% | 103% | 100% | 112% | 96.9% | 98.7% | 99.6% | 105% | 84.8% | 88% | 98.1% | 22.6% | 102% | 101% | 93.3% | 97.4% | 97.7% | 102% | 99.5%
COC(=O)\C1=C\CCN(C)C1 | 111% | 106% | 105% | 100% | 103% | 108% | 96.9% | 102% | 93.7% | 102% | 105% | 102% | 115% | 113% | 104% | 102% | 108% | 111% | 115% | 107% | 98.4% | 101% | 101% | 101% | 97% | 96.1% | 96.3% | 99.8% | 102% | 101% | 93% | 99% | 93.3%
CCCC1OC2C[C@H]3[C@@H]4CCC5=CC(=O)C=C[C@]5(C)[C@H]4C(O)C[C@]3(C)[C@]2(C(=O)CO)O1 (some centres undefined) | 114% | 120% | 109% | 95.8% | 79% | 68.7% | 67.3% | 64% | 64.9% | 60% | 49% | 116% | 114% | 99.1% | 90% | 70.6% | 57.8% | 57.6% | 50.1% | 51.2% | 51.3% | 39.7% | 116% | 108% | 90.4% | 76.7% | 60% | 47.5% | 44.1% | 43% | 42% | 37.5% | 28.4%
C#CCN[C@@H]1CCc2ccccc21.CS(=O)(=O)O | 105% | 100% | 91% | 105% | 103% | 95% | 98.2% | 100% | 91.2% | 93.5% | 86.4% | 97.6% | 93.6% | 90.5% | 95.2% | 101% | 103% | 93.7% | 85.6% | 95.9% | 92.9% | 84.2% | 89.5% | 91.9% | 94.9% | 88.8% | 101% | 99.1% | 97% | 85.5% | 83.6% | 83.7% | 83.5%
CC(C)Oc1ccc(C(=O)N[C@H](CNC(=O)CN(C)C)Cc2ccc(-c3cn4cccc([C@H](C)O)c4n3)cc2)cc1Cl | 121% | 115% | 118% | 115% | 106% | 101% | 107% | 78.1% | 48.3% | 45.8% | 54.2% | 117% | 120% | 118% | 111% | 115% | 110% | 103% | 41.2% | 25.3% | 23% | 26.6% | 108% | 117% | 112% | 110% | 102% | 101% | 97.9% | 63% | 38.4% | 31.6% | 32.7%
N#C/C(C(=O)c1ccc(Cl)cc1Cl)=C1/NC(=O)c2ccc(Cl)cc2N1 | 114% | 123% | 108% | 115% | 111% | 111% | 110% | 106% | 103% | 107% | 107% | 115% | 119% | 117% | 107% | 106% | 111% | 107% | 103% | 105% | 105% | 94.2% | 106% | 106% | 107% | 110% | 112% | 98.9% | 107% | 104% | 97.8% | 101% | 98.3%
O=c1[nH]c(=O)n(C2CCCO2)cc1F (centres undefined) | 122% | 124% | 126% | 125% | 125% | 124% | 123% | 123% | 112% | 110% | 116% | – | – | – | – | – | – | – | – | – | – | – | 88.6% | 126% | 120% | 128% | 130% | 120% | 122% | 121% | 119% | 108% | 115%
CCN1CCN(C(=O)Cc2ccc(Nc3ncc(F)c(Nc4ccc(C(=O)Nc5ccccc5Cl)cc4)n3)cc2)CC1 | 107% | 105% | 108% | 108% | 116% | 118% | 116% | 107% | 60.1% | 48.1% | 26.2% | 105% | 108% | 112% | 111% | 115% | 122% | 111% | 114% | 73.2% | 50.9% | 41% | 119% | 111% | 112% | 125% | 131% | 121% | 107% | 107% | 79.2% | 52.6% | 45.6%
OC[C@H]1O[C@@H]2[C@@H](OC\3=N\C(=N)\C=C/[N@@]23)[C@@H]1O | 113% | 119% | 107% | 105% | 95.6% | 44.3% | 24.7% | 13.5% | 10.7% | 7.98% | 8.28% | 116% | 118% | 118% | 105% | 93.2% | 47.3% | 22.5% | 12.1% | 8.81% | 7.28% | 6.52% | 109% | 122% | 114% | 117% | 92.4% | 53.2% | 28.6% | 17% | 11.6% | 9.01% | 7.41%
